The results in this text go back to ChEMBL document CHEMBL1127126, “Conformationally restricted analogs of CP-99,994: synthesis of a spirocyclic amine” (Bioorg Med Chem Lett, 1993).

For this assay, the target named is Substance-P receptor (Homo sapiens, UniProt P25103). The experiment in a line: Tested for inhibitory activity against substance P receptor.

The structures appear in SMILES notation.

Substance-P receptor, sequence (P25103 whole entry): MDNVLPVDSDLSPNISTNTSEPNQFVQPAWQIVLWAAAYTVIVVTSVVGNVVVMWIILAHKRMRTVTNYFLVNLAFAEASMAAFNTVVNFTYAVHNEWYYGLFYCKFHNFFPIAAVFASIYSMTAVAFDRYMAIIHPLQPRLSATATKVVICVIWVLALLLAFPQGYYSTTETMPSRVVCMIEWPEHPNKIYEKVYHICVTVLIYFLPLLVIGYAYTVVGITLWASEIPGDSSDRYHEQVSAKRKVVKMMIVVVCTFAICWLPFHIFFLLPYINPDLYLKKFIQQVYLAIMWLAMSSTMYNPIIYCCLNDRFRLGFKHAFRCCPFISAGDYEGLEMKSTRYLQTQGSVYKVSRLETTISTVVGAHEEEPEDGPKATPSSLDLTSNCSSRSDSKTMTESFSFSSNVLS

With `c1ccc([C@H]2NCCC[C@]23CC[C@H](c2ccccc2)N3)cc1`, the half-maximal inhibitory concentration (IC50) (usually the midpoint of a concentration-inhibition curve) is over 1 µM.
